Data reported in patent US9439428B2, “Herbicidal compounds” (SYNGENTA LIMITED, priority 2011, dated 2016).

system: Setaria faberi (SETFA); test: Post-emergence herbicidal glasshouse test; assay type: in vivo; details: 1000 g/h, evaluated after 13 days, five point scale
Description: (§1) Seeds of a variety of test species are sown in standard soil in pots (Alopecurus myosuroides (ALOMY), Setaria faberi (SETFA), Echinochloa crus-galli (ECHCG), Abuthilon theophrasti (ABUTH) and Amaranthus retoflexus (AMARE)). After cultivation for one day (pre-emergence) or after 8 days cultivation (post-emergence) under controlled conditions in a glasshouse (at 24/16° C., day/night; 14 hours light; 65% humidity), the plants are sprayed with an aqueous spray solution derived from the formulation of the technical active ingredient in acetone/water (50:50) solution containing 0.5% Tween 20 (polyoxyethelyene sorbitan monolaurate, CAS RN 9005-64-5). Compounds ae applied at 1000 g/h. The test plants are then grown in a glasshouse under controlled conditions in a glasshouse (at 24/16° C., day/night; 14 hours light; 65% humidity) and watered twice daily. After 13 days for pre and post-emergence, the test is evaluated for the percentage herbicidal damage caused to the plant. The biological activities are shown in the following table on a five point scale (5=80-100% damage; 4=60-79% damage; 3=40-59% damage; 2=20-39% damage; 1=0-19% damage).

SMILES	percentage herbicidal damage, SETFA, POST Application
COc1ccc(-n2nc(C)cc(C(=O)C3C(=O)CCCC3=O)c2=O)cc1 [Compound 1.3]	5 (5=80-100% damage)
Cc1cc(C(=O)C2C(=O)CCCC2=O)c(=O)n(-c2ccccc2)n1 [Compound 1.2, 2-(6-Methyl-3-oxo-2-phenyl-2,3-dihydropyridazine-4-carbonyl)-cyclohexane-1,3-dione]	5 (5=80-100% damage)
O=C1CCCC(=O)C1C(=O)c1ccnn(-c2ccccc2)c1=O [Compound 1.1, 2-(3-Oxo-2-phenyl-2,3-dihydropyridazine-4-carbonyl)-cyclohexane-1,3-dione]	5 (5=80-100% damage)
Cc1cc(C(=O)C2C(=O)CC(C)CC2=O)c(=O)n(-c2ccccc2C)n1 (stereo not shown) [Compound 1.6]	5 (5=80-100% damage)

system: Abuthilon theophrasti (ABUTH); test: Post-emergence herbicidal glasshouse test; assay type: in vivo; details: 1000 g/h, evaluated after 13 days, five point scale
Description: as §1

SMILES	percentage herbicidal damage, ABUTH, POST Application
COc1ccc(-n2nc(C)cc(C(=O)C3C(=O)CCCC3=O)c2=O)cc1 [Compound 1.3]	5 (5=80-100% damage)
Cc1cc(C(=O)C2C(=O)CCCC2=O)c(=O)n(-c2ccccc2)n1 [Compound 1.2, 2-(6-Methyl-3-oxo-2-phenyl-2,3-dihydropyridazine-4-carbonyl)-cyclohexane-1,3-dione]	5 (5=80-100% damage)
O=C1CCCC(=O)C1C(=O)c1ccnn(-c2ccccc2)c1=O [Compound 1.1, 2-(3-Oxo-2-phenyl-2,3-dihydropyridazine-4-carbonyl)-cyclohexane-1,3-dione]	5 (5=80-100% damage)
Cc1cc(C(=O)C2C(=O)CC(C)CC2=O)c(=O)n(-c2ccccc2C)n1 (stereo not shown) [Compound 1.6]	5 (5=80-100% damage)

system: Echinochloa crus-galli (ECHCG); test: Post-emergence herbicidal glasshouse test; assay type: in vivo; details: 1000 g/h, evaluated after 13 days, five point scale
Description: as §1

SMILES	percentage herbicidal damage, ECHCG, POST Application
COc1ccc(-n2nc(C)cc(C(=O)C3C(=O)CCCC3=O)c2=O)cc1 [Compound 1.3]	5 (5=80-100% damage)
Cc1cc(C(=O)C2C(=O)CCCC2=O)c(=O)n(-c2ccccc2)n1 [Compound 1.2, 2-(6-Methyl-3-oxo-2-phenyl-2,3-dihydropyridazine-4-carbonyl)-cyclohexane-1,3-dione]	5 (5=80-100% damage)
O=C1CCCC(=O)C1C(=O)c1ccnn(-c2ccccc2)c1=O [Compound 1.1, 2-(3-Oxo-2-phenyl-2,3-dihydropyridazine-4-carbonyl)-cyclohexane-1,3-dione]	5 (5=80-100% damage)
Cc1cc(C(=O)C2C(=O)CC(C)CC2=O)c(=O)n(-c2ccccc2C)n1 (stereo not shown) [Compound 1.6]	5 (5=80-100% damage)

system: Alopecurus myosuroides (ALOMY); test: Post-emergence herbicidal glasshouse test; assay type: in vivo; details: 1000 g/h, evaluated after 13 days, five point scale
Description: as §1

SMILES	percentage herbicidal damage, ALOMY, POST Application
COc1ccc(-n2nc(C)cc(C(=O)C3C(=O)CCCC3=O)c2=O)cc1 [Compound 1.3]	5 (5=80-100% damage)
Cc1cc(C(=O)C2C(=O)CCCC2=O)c(=O)n(-c2ccccc2)n1 [Compound 1.2, 2-(6-Methyl-3-oxo-2-phenyl-2,3-dihydropyridazine-4-carbonyl)-cyclohexane-1,3-dione]	5 (5=80-100% damage)
O=C1CCCC(=O)C1C(=O)c1ccnn(-c2ccccc2)c1=O [Compound 1.1, 2-(3-Oxo-2-phenyl-2,3-dihydropyridazine-4-carbonyl)-cyclohexane-1,3-dione]	5 (5=80-100% damage)
Cc1cc(C(=O)C2C(=O)CC(C)CC2=O)c(=O)n(-c2ccccc2C)n1 (stereo not shown) [Compound 1.6]	5 (5=80-100% damage)

system: Amaranthus retoflexus (AMARE); test: Post-emergence herbicidal glasshouse test; assay type: in vivo; details: 1000 g/h, evaluated after 13 days, five point scale
Description: as §1

SMILES	percentage herbicidal damage, AMARE, POST Application
COc1ccc(-n2nc(C)cc(C(=O)C3C(=O)CCCC3=O)c2=O)cc1 [Compound 1.3]	5 (5=80-100% damage)
Cc1cc(C(=O)C2C(=O)CCCC2=O)c(=O)n(-c2ccccc2)n1 [Compound 1.2, 2-(6-Methyl-3-oxo-2-phenyl-2,3-dihydropyridazine-4-carbonyl)-cyclohexane-1,3-dione]	5 (5=80-100% damage)
O=C1CCCC(=O)C1C(=O)c1ccnn(-c2ccccc2)c1=O [Compound 1.1, 2-(3-Oxo-2-phenyl-2,3-dihydropyridazine-4-carbonyl)-cyclohexane-1,3-dione]	5 (5=80-100% damage)
Cc1cc(C(=O)C2C(=O)CC(C)CC2=O)c(=O)n(-c2ccccc2C)n1 (stereo not shown) [Compound 1.6]	5 (5=80-100% damage)

system: Setaria faberi (SETFA); test: Pre-emergence herbicidal glasshouse test; assay type: in vivo; details: 1000 g/h, evaluated after 13 days, five point scale
Description: as §1

SMILES	percentage herbicidal damage, SETFA, PRE Application
COc1ccc(-n2nc(C)cc(C(=O)C3C(=O)CCCC3=O)c2=O)cc1 [Compound 1.3]	5 (5=80-100% damage)
Cc1cc(C(=O)C2C(=O)CCCC2=O)c(=O)n(-c2ccccc2)n1 [Compound 1.2, 2-(6-Methyl-3-oxo-2-phenyl-2,3-dihydropyridazine-4-carbonyl)-cyclohexane-1,3-dione]	5 (5=80-100% damage)
O=C1CCCC(=O)C1C(=O)c1ccnn(-c2ccccc2)c1=O [Compound 1.1, 2-(3-Oxo-2-phenyl-2,3-dihydropyridazine-4-carbonyl)-cyclohexane-1,3-dione]	5 (5=80-100% damage)
Cc1cc(C(=O)C2C(=O)CC(C)CC2=O)c(=O)n(-c2ccccc2C)n1 (stereo not shown) [Compound 1.6]	5 (5=80-100% damage)

system: Abuthilon theophrasti (ABUTH); test: Pre-emergence herbicidal glasshouse test; assay type: in vivo; details: 1000 g/h, evaluated after 13 days, five point scale
Description: as §1

SMILES	percentage herbicidal damage, ABUTH, PRE Application
COc1ccc(-n2nc(C)cc(C(=O)C3C(=O)CCCC3=O)c2=O)cc1 [Compound 1.3]	5 (5=80-100% damage)
Cc1cc(C(=O)C2C(=O)CCCC2=O)c(=O)n(-c2ccccc2)n1 [Compound 1.2, 2-(6-Methyl-3-oxo-2-phenyl-2,3-dihydropyridazine-4-carbonyl)-cyclohexane-1,3-dione]	5 (5=80-100% damage)
O=C1CCCC(=O)C1C(=O)c1ccnn(-c2ccccc2)c1=O [Compound 1.1, 2-(3-Oxo-2-phenyl-2,3-dihydropyridazine-4-carbonyl)-cyclohexane-1,3-dione]	5 (5=80-100% damage)
Cc1cc(C(=O)C2C(=O)CC(C)CC2=O)c(=O)n(-c2ccccc2C)n1 (stereo not shown) [Compound 1.6]	5 (5=80-100% damage)

system: Echinochloa crus-galli (ECHCG); test: Pre-emergence herbicidal glasshouse test; assay type: in vivo; details: 1000 g/h, evaluated after 13 days, five point scale
Description: as §1

SMILES	percentage herbicidal damage, ECHCG, PRE Application
COc1ccc(-n2nc(C)cc(C(=O)C3C(=O)CCCC3=O)c2=O)cc1 [Compound 1.3]	5 (5=80-100% damage)
Cc1cc(C(=O)C2C(=O)CCCC2=O)c(=O)n(-c2ccccc2)n1 [Compound 1.2, 2-(6-Methyl-3-oxo-2-phenyl-2,3-dihydropyridazine-4-carbonyl)-cyclohexane-1,3-dione]	5 (5=80-100% damage)
O=C1CCCC(=O)C1C(=O)c1ccnn(-c2ccccc2)c1=O [Compound 1.1, 2-(3-Oxo-2-phenyl-2,3-dihydropyridazine-4-carbonyl)-cyclohexane-1,3-dione]	5 (5=80-100% damage)
Cc1cc(C(=O)C2C(=O)CC(C)CC2=O)c(=O)n(-c2ccccc2C)n1 (stereo not shown) [Compound 1.6]	5 (5=80-100% damage)

system: Alopecurus myosuroides (ALOMY); test: Pre-emergence herbicidal glasshouse test; assay type: in vivo; details: 1000 g/h, evaluated after 13 days, five point scale
Description: as §1

SMILES	percentage herbicidal damage, ALOMY, PRE Application
COc1ccc(-n2nc(C)cc(C(=O)C3C(=O)CCCC3=O)c2=O)cc1 [Compound 1.3]	5 (5=80-100% damage)
Cc1cc(C(=O)C2C(=O)CCCC2=O)c(=O)n(-c2ccccc2)n1 [Compound 1.2, 2-(6-Methyl-3-oxo-2-phenyl-2,3-dihydropyridazine-4-carbonyl)-cyclohexane-1,3-dione]	5 (5=80-100% damage)
O=C1CCCC(=O)C1C(=O)c1ccnn(-c2ccccc2)c1=O [Compound 1.1, 2-(3-Oxo-2-phenyl-2,3-dihydropyridazine-4-carbonyl)-cyclohexane-1,3-dione]	5 (5=80-100% damage)
Cc1cc(C(=O)C2C(=O)CC(C)CC2=O)c(=O)n(-c2ccccc2C)n1 (stereo not shown) [Compound 1.6]	5 (5=80-100% damage)

system: Amaranthus retoflexus (AMARE); test: Pre-emergence herbicidal glasshouse test; assay type: in vivo; details: 1000 g/h, evaluated after 13 days, five point scale
Description: as §1

SMILES	percentage herbicidal damage, AMARE, PRE Application
COc1ccc(-n2nc(C)cc(C(=O)C3C(=O)CCCC3=O)c2=O)cc1 [Compound 1.3]	5 (5=80-100% damage)
Cc1cc(C(=O)C2C(=O)CCCC2=O)c(=O)n(-c2ccccc2)n1 [Compound 1.2, 2-(6-Methyl-3-oxo-2-phenyl-2,3-dihydropyridazine-4-carbonyl)-cyclohexane-1,3-dione]	5 (5=80-100% damage)
O=C1CCCC(=O)C1C(=O)c1ccnn(-c2ccccc2)c1=O [Compound 1.1, 2-(3-Oxo-2-phenyl-2,3-dihydropyridazine-4-carbonyl)-cyclohexane-1,3-dione]	5 (5=80-100% damage)
Cc1cc(C(=O)C2C(=O)CC(C)CC2=O)c(=O)n(-c2ccccc2C)n1 (stereo not shown) [Compound 1.6]	5 (5=80-100% damage)
